What was measured:
[1] = molecular target: Voltage-dependent N-type calcium channel subunit alpha-1B (Rattus norvegicus, UniProt Q02294); assay type: functional
[2] = molecular target: 5-hydroxytryptamine receptor 5A (Homo sapiens, UniProt P47898)
D(1B) dopamine receptor = D(1B) dopamine receptor (Homo sapiens, UniProt P21918)
[3] = molecular target: Gamma-aminobutyric acid type B receptor subunit 1 (Homo sapiens, UniProt Q9UBS5)
[4] = molecular target: T1, Muscarinic acetylcholine receptor M5 (Homo sapiens, UniProt P08912)
T1 sequence (P08912 whole entry): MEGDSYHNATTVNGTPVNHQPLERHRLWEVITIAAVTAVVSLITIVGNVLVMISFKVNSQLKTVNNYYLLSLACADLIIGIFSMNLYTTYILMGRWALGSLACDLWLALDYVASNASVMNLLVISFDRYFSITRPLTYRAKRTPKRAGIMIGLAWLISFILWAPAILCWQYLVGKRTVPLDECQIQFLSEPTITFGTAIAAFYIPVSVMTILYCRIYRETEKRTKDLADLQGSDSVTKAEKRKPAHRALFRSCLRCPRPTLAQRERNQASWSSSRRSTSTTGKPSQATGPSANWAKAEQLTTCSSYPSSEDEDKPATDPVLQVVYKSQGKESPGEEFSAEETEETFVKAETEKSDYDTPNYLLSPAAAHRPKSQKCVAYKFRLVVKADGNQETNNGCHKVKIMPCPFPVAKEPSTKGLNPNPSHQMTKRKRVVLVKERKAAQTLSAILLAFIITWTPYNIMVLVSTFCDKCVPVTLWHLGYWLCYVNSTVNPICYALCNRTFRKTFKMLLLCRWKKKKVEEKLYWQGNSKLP

B1 bradykinin receptor = molecular target: T2, B1 bradykinin receptor (Homo sapiens, UniProt P46663)
T2 sequence (P46663 whole entry): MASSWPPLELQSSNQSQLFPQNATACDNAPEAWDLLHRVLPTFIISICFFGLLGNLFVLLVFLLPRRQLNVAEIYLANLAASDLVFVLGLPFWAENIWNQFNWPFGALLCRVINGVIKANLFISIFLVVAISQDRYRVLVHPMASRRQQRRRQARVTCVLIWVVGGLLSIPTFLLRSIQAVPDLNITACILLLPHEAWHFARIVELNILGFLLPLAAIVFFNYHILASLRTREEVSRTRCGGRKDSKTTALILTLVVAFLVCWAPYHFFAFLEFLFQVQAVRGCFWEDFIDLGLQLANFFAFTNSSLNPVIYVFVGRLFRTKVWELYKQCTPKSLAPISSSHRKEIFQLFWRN

[5] = molecular target: Voltage-dependent L-type calcium channel subunit alpha-1C (Homo sapiens, UniProt Q13936); assay type: functional, cell-based
Voltage-dependent L-type calcium channel subunit alpha-1C, sequence (Q13936 whole entry): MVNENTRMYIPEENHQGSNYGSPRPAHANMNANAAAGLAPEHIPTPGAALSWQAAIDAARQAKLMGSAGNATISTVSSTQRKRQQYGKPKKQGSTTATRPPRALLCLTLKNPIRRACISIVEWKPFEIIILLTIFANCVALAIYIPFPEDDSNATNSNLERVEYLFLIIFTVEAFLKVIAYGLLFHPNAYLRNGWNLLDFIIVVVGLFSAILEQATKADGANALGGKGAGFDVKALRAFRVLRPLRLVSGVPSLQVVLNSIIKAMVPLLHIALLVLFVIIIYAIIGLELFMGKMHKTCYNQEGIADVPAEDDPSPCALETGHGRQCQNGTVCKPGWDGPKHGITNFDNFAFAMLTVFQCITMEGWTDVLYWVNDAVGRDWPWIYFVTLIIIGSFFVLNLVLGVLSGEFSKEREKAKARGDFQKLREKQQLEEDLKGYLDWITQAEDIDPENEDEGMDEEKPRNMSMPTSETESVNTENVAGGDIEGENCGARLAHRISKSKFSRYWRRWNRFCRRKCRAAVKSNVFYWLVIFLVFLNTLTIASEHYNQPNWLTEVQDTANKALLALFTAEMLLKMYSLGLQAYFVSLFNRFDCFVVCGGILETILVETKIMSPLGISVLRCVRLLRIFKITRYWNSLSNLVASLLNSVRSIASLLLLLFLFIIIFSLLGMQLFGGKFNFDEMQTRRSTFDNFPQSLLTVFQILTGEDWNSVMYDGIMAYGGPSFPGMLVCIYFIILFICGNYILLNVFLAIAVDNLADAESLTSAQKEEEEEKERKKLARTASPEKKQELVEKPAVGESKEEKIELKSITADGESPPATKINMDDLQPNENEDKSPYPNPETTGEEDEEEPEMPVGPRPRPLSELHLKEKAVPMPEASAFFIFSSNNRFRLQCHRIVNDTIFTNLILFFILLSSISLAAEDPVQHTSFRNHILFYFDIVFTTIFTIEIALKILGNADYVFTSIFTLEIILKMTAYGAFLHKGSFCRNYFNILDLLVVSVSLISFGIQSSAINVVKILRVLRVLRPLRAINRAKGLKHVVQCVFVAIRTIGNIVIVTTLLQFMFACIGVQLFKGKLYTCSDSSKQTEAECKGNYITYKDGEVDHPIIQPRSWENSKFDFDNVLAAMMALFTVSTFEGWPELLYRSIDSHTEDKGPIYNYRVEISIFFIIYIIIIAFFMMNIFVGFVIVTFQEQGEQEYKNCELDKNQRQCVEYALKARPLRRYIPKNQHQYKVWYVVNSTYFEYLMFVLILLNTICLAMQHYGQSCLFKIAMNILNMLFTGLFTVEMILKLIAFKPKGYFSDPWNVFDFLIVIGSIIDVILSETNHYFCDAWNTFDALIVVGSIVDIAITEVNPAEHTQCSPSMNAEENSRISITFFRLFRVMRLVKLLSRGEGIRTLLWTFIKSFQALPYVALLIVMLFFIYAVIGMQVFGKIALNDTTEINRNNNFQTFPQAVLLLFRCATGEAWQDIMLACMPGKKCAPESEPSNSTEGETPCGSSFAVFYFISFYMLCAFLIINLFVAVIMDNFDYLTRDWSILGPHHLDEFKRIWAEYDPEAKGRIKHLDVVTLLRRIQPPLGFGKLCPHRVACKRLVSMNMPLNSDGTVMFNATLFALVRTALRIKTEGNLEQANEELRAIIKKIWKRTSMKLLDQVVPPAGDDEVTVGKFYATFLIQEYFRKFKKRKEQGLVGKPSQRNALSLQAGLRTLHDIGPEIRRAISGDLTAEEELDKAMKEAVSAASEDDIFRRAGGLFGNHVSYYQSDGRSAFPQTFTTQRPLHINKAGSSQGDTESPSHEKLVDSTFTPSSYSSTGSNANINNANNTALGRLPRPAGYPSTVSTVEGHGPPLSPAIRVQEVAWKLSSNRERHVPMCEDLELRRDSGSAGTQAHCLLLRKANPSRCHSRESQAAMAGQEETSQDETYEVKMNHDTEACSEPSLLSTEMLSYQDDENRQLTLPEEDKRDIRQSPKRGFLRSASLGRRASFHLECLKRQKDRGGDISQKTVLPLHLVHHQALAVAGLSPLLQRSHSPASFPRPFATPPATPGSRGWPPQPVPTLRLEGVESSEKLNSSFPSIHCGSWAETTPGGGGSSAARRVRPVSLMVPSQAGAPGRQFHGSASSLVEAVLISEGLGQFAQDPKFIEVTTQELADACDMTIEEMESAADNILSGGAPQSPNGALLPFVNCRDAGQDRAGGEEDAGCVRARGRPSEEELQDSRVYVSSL

D(1A) dopamine receptor = D(1A) dopamine receptor (Homo sapiens, UniProt P21728); assay type: functional, cell-based
D(1A) dopamine receptor, sequence (P21728 whole entry): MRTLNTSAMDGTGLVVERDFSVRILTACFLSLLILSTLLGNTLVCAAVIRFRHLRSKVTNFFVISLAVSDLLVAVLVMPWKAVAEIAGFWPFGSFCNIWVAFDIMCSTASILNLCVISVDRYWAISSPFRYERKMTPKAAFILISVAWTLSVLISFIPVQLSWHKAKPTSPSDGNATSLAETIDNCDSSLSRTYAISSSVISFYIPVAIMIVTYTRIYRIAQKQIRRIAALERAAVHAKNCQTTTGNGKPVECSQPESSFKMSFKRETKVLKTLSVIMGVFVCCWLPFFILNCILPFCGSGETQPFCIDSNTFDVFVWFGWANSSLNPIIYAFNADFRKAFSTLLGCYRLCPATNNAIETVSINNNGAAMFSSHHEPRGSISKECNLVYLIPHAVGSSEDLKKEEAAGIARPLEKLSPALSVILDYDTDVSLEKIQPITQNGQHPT

[6] = molecular target: T3, Peroxisome proliferator-activated receptor gamma (Homo sapiens, UniProt P37231); assay type: functional
T3 sequence (P37231 whole entry): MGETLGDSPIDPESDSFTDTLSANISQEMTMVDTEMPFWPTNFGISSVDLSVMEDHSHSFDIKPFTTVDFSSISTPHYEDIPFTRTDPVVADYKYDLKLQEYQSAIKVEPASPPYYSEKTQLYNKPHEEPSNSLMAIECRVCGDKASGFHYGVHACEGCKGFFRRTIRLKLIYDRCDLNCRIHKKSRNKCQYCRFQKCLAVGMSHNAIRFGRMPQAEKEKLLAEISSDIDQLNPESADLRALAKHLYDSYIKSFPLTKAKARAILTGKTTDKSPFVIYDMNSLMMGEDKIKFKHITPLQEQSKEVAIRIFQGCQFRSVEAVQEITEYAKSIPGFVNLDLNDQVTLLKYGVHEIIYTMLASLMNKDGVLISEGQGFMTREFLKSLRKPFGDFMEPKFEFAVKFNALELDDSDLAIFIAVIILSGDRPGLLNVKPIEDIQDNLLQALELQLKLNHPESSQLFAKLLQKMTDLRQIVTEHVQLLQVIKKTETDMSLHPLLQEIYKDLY

[7] = molecular target: T4, Type-1 angiotensin II receptor (Homo sapiens, UniProt P30556)
T4 sequence (P30556 whole entry): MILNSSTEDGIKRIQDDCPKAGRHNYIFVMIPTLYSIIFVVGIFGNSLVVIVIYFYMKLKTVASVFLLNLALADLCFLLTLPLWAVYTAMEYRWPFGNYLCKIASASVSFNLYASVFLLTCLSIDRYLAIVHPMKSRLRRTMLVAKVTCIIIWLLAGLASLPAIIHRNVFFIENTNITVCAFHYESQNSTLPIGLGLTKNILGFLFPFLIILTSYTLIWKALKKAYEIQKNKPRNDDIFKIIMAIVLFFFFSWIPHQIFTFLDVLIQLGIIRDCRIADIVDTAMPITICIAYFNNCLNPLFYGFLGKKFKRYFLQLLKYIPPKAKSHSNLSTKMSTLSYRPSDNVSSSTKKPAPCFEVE

[8] = molecular target: T5, Type-2 angiotensin II receptor (Homo sapiens, UniProt P50052); assay type: functional
T5 sequence (P50052 whole entry): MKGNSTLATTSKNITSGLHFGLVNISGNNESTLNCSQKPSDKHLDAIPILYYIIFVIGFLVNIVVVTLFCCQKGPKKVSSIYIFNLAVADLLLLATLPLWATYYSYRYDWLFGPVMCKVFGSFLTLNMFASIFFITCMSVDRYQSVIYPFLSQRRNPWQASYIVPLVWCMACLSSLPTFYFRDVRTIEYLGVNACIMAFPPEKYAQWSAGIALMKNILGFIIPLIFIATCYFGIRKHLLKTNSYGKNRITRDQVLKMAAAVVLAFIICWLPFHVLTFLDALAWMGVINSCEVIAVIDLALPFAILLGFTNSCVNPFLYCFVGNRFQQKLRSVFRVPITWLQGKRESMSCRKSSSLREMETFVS

[9] = molecular target: Hydroxycarboxylic acid receptor 2 (Homo sapiens, UniProt Q8TDS4)
Estrogen receptor beta = Estrogen receptor beta (Homo sapiens, UniProt Q92731)
Estrogen receptor beta, sequence (Q92731 whole entry): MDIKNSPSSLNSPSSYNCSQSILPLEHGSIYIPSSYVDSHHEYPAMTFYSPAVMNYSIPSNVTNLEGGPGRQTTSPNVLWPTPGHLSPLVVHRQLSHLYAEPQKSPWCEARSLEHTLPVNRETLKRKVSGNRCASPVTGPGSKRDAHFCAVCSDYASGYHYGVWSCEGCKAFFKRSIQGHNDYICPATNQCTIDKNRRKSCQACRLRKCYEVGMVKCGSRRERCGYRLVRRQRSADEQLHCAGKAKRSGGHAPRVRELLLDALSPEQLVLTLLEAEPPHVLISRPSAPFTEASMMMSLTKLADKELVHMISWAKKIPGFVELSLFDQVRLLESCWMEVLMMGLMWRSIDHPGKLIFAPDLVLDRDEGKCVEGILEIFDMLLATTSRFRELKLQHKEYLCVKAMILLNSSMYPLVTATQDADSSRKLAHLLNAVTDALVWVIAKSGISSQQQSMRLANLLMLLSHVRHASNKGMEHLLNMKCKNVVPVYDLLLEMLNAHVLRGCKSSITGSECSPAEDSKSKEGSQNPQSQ
Further: assay procedure not described here.

Gamma-aminobutyric acid type B receptor subunit 1, sequence (Q9UBS5 whole entry): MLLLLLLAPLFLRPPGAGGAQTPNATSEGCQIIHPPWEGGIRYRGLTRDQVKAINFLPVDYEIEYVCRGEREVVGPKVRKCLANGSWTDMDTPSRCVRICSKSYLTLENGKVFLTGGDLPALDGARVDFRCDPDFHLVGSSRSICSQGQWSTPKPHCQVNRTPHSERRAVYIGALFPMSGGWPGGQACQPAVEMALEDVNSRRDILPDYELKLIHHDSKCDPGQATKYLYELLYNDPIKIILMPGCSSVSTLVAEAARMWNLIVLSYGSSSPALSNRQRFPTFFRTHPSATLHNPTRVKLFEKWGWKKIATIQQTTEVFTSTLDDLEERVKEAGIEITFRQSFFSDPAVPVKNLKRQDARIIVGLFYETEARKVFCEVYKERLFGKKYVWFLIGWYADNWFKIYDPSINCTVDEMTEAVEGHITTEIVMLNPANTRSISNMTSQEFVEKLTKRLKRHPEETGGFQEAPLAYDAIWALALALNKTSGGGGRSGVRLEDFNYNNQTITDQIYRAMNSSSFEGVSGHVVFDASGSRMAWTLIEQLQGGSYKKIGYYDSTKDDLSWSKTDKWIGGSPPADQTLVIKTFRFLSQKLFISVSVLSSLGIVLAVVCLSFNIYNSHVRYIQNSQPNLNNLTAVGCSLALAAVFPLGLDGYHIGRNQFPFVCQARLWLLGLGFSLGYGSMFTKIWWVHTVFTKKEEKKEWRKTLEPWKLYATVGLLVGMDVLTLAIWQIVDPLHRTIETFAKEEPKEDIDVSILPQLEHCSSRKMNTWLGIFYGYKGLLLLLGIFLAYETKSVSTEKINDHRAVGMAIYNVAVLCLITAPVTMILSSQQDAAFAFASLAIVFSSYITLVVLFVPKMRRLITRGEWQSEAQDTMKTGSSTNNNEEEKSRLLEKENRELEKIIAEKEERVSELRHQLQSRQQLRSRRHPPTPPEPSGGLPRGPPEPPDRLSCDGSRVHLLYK
5-hydroxytryptamine receptor 5A, sequence (P47898 whole entry): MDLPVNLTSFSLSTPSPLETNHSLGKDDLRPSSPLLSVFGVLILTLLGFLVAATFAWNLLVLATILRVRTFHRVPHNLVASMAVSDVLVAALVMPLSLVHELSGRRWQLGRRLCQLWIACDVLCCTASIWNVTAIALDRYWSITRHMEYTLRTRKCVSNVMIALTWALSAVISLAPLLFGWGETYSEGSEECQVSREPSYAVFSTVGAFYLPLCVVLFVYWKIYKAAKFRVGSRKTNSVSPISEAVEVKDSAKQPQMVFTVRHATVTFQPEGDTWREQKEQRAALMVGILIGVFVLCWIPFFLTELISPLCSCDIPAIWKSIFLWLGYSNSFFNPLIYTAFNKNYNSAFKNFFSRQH
D(1B) dopamine receptor, sequence (P21918 whole entry): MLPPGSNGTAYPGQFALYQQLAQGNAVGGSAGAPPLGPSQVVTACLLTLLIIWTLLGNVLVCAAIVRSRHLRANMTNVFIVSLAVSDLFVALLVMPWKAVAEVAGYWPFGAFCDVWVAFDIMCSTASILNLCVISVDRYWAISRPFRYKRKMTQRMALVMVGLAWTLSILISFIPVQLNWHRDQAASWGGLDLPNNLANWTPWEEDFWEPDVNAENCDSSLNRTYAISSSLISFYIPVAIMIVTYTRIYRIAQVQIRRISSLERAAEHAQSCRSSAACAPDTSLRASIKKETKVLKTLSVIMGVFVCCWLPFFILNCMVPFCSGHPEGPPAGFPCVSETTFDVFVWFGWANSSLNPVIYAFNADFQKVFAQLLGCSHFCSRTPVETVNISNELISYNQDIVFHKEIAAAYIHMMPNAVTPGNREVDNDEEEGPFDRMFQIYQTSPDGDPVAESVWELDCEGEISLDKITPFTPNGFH

SMILES: N#Cc1ccc([C@H]2CCc3cncn32)c(F)c1 [OSILODROSTAT]
- AC50 [1]: > 10 µM
- AC50 [2]: > 10 µM
- AC50 (D(1B) dopamine receptor): > 10 µM
- AC50 [3]: > 10 µM
- AC50 [4]: > 10 µM
- AC50 (B1 bradykinin receptor): > 10 µM

SMILES: Clc1ccc(CCCOCCCN2CCCCC2)cc1 [PITOLISANT]
- AC50 [5]: 10.4 µM

SMILES: C=CCN1CCCC1CNC(=O)c1cc(S(N)(=O)=O)cc(OC)c1OC (stereo not drawn) [VERALIPRIDE]
- AC50 (D(1A) dopamine receptor): > 30 µM

SMILES: CO/N=C(\C(=O)N[C@@H]1C(=O)N2C(C(=O)O)=C(CSc3nnnn3C)CS[C@H]12)c1csc(N)n1 [CEFMENOXIME]
- AC50 [6]: > 30 µM

SMILES: CC[C@@H]1C(=O)OC[C@@H]1Cc1cncn1C [PILOCARPINE]
- AC50 [1]: > 10 µM

SMILES: CC(=O)O[C@H]1CC[C@@]2(C)C(=CC[C@@H]3[C@@H]2CC[C@]2(C)C(c4cccnc4)=CC[C@@H]32)C1 [ABIRATERONE ACETATE]
- AC50 [5]: > 30 µM
- AC50 [6]: > 30 µM

SMILES: C/C(O)=C(\C#N)C(=O)Nc1ccc(C(F)(F)F)cc1 [TERIFLUNOMIDE]
- AC50 [6]: 25 µM

SMILES: CCCCc1ncc(/C=C(\Cc2cccs2)C(=O)O)n1Cc1ccc(C(=O)O)cc1 [EPROSARTAN]
- AC50 [7]: 0.0042 µM
- AC50 [1]: > 10 µM
- AC50 [2]: > 10 µM
- AC50 (D(1B) dopamine receptor): > 10 µM
- AC50 [3]: > 10 µM
- AC50 [4]: > 10 µM
- AC50 (B1 bradykinin receptor): > 30 µM
- AC50 [8]: > 100 µM

SMILES: CC(CC(c1ccccc1)c1ccccc1)NC(C)(C)C (stereo not drawn) [TERODILINE]
- AC50 [5]: > 50 µM

SMILES: CCN1CCN(C(=O)N[C@@H](C(=O)N[C@@H]2C(=O)N3C(C(=O)O)=C(CSc4nnnn4C)CS[C@H]23)c2ccc(O)cc2)C(=O)C1=O [CEFOPERAZONE]
- AC50 [6]: > 30 µM

SMILES: CN1C(=O)C(O)N=C(c2ccccc2)c2cc(Cl)ccc21 (stereo not drawn) [TEMAZEPAM]
- AC50 [1]: > 10 µM
- AC50 [9]: > 10 µM
- AC50 (Estrogen receptor beta): > 30 µM
- AC50 (B1 bradykinin receptor): > 30 µM

SMILES: COC(=O)C1=C(C)NC(C)=C(C(=O)OC2CCCN(Cc3ccccc3)C2)C1c1cccc([N+](=O)[O-])c1 (stereo not drawn) [BENIDIPINE]
- AC50 [5]: 1.9 µM

SMILES: CCc1c(Cl)c(O)c(Cl)c(O)c1C(=O)O[C@H]1[C@H](O)[C@H](OC)[C@H](OC/C2=C\C=C\C[C@H](O)/C(C)=C/[C@H](CC)[C@@H](O[C@@H]3OC(C)(C)[C@@H](OC(=O)C(C)C)[C@H](O)[C@@H]3O)/C(C)=C/C(C)=C/C[C@@H]([C@@H](C)O)OC2=O)O[C@@H]1C [FIDAXOMICIN]
- AC50 [1]: > 10 µM
- AC50 (Estrogen receptor beta): > 30 µM
- AC50 (B1 bradykinin receptor): > 30 µM

SMILES: CCC1(CC)C(=O)NCC(C)C1=O (stereo not drawn) [METHYPRYLON]
- AC50 [6]: > 30 µM

SMILES: CCN(CC)C(=O)N[C@H]1C[C@@H]2c3cccc4[nH]cc(c34)C[C@H]2N(C)C1 [TERGURIDE]
- AC50 [6]: > 30 µM

SMILES: CC(C)OC(=O)CCC/C=C\C[C@@H]1[C@@H](CC[C@@H](O)CCc2ccccc2)[C@H](O)C[C@@H]1O [LATANOPROST]
- AC50 [6]: > 30 µM

SMILES: CC(C)(C)c1cc(C(C)(C)C)c(NC(=O)c2c[nH]c3ccccc3c2=O)cc1O [IVACAFTOR]
- AC50 [1]: > 10 µM

SMILES: COC(=O)C1=C(C)NC(C)=C(C(=O)OC(C)(C)CN(C)CCC(c2ccccc2)c2ccccc2)C1c1cccc([N+](=O)[O-])c1 (stereo not drawn) [LERCANIDIPINE]
- AC50 [5]: > 50 µM

SMILES: COc1ccc2c3c1O[C@H]1[C@@H](O)C=C[C@H]4[C@@H](C2)N(C)CC[C@@]341 [CODEINE]
- AC50 [1]: > 10 µM
- AC50 [3]: > 10 µM
- AC50 [4]: > 10 µM
- AC50 (B1 bradykinin receptor): > 30 µM

SMILES: CNS(=O)(=O)Cc1ccc2[nH]cc(CCN(C)C)c2c1
- AC50 [1]: > 10 µM
- AC50 [3]: > 10 µM
- AC50 (Estrogen receptor beta): > 30 µM
- AC50 (B1 bradykinin receptor): > 30 µM

SMILES: CN1CCC(=C2c3ccccc3CCc3sccc32)CC1 [PIZOTYLINE]
- AC50 (D(1A) dopamine receptor): 0.65 µM

SMILES: CCCc1nc(C(C)(C)O)c(C(=O)OCc2oc(=O)oc2C)n1Cc1ccc(-c2ccccc2-c2nnn[nH]2)cc1 [OLMESARTAN MEDOXOMIL]
- AC50 [7]: 0.0017 µM
- AC50 [1]: > 10 µM
- AC50 (Estrogen receptor beta): > 30 µM
- AC50 (B1 bradykinin receptor): > 50 µM
- AC50 [8]: 74.3 µM

SMILES: CN1CCN(CC/C=C2/c3ccccc3Sc3ccc(S(=O)(=O)N(C)C)cc32)CC1 [THIOTHIXENE]
- AC50 [1]: > 10 µM
- AC50 [3]: > 10 µM
- AC50 (D(1A) dopamine receptor): 0.98 µM
- AC50 (Estrogen receptor beta): > 30 µM
- AC50 (B1 bradykinin receptor): > 30 µM

SMILES: CCCN(CCC)C(=O)C(CCC(=O)O)NC(=O)c1ccccc1 (stereo not drawn) [PROGLUMIDE]
- AC50 [1]: > 10 µM
- AC50 [9]: > 10 µM
- AC50 (B1 bradykinin receptor): > 30 µM
